Results reported in article PMC12155096 (International Journal of Molecular Sciences, 2025).

The molecules below were run against human CYP2D6 (Homo sapiens, UniProt P10635) (assay: not given). Settings: not given.
Chain of human CYP2D6 (P10635 whole entry): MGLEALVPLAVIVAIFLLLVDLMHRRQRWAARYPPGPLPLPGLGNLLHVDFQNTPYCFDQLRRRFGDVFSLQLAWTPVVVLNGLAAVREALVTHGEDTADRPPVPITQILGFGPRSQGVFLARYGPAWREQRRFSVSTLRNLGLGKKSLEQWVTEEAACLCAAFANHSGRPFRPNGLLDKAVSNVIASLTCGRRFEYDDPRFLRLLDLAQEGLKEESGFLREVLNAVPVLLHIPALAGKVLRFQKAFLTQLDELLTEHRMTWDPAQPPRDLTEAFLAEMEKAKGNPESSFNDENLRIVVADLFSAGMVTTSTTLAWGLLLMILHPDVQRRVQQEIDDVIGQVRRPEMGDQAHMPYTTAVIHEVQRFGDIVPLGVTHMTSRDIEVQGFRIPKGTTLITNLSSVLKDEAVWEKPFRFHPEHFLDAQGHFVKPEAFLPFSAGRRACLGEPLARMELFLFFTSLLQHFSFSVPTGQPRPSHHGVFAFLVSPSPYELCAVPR

Structure (SMILES)	CYP2D6 AC50 (half-maximal activity concentration)	AC50
Oc1cc(Cl)c(Cl)cc1Cl [2,4,5-Trichlorophenol]	Inactive	–
Oc1cc(Cl)ccc1Cl [2,5-Dichlorophenol]	Inactive	–
CCOc1ccccc1C(N)=O [2-Ethoxybenzamide]	Inactive	–
COc1cccc(O)c1 [3-Methoxyphenol]	Inactive	–
CC(C)(C)c1cccc(O)c1 [3-tert-Butylphenol]	Inactive	–
O=C(O)C(F)(F)C(F)(F)C(F)(F)C(F)(F)C(F)(F)F [PFHxA]	Inconclusive inhibitor	–
N.O=C(O)C(F)(F)C(F)(F)C(F)(F)C(F)(F)C(F)(F)C(F)(F)C(F)(F)F [PFOA, ammonium salt]	Inactive	–
O=C(O)C(F)(F)C(F)(F)C(F)(F)C(F)(F)C(F)(F)C(F)(F)C(F)(F)F [PFOA]	Inactive	–
CCOC(=O)c1ccc(N(C)C)cc1 [Parbenate]	Inactive	–
O=C(OCCCCCOC(=O)c1ccccc1)c1ccccc1 [Pentane-1,5-diyl dibenzoate]	Inactive	–
CN1C(=O)N(c2ccccc2Br)Cc2cnc(Nc3ccc4c(c3)OCC(CO)O4)nc21 (centres unmarked) [PharmaGSID_48519]	–	56.6 µM
CC(C)C(=O)OCCOc1ccccc1 [Phenoxyethyl isobutyrate]	Inactive	–
CCC(=O)OCCOc1ccccc1 [Phenoxyethyl propionate]	Inactive	–
COC(=O)c1ccccc1C(=O)c1ccc(OCCN2CCCCC2)cc1.Cl [Pitofenone hydrochloride]	–	14.9 µM
CCCOc1ccc2c(c1)CC[C@@H]1[C@@H]2CC[C@]2(C)[C@@H](OC)CC[C@@H]12 [Promestriene]	–	21.5 µM
CCCCCCCCS(=O)(=O)[O-].[Na+] [Sodium 1-octanesulfonate]	Inactive	–

The molecules below were run against T1, human CYP2C19 (Homo sapiens, UniProt P33261) (assay: biochemical). Settings: not given.
T1 sequence (P33261 whole entry): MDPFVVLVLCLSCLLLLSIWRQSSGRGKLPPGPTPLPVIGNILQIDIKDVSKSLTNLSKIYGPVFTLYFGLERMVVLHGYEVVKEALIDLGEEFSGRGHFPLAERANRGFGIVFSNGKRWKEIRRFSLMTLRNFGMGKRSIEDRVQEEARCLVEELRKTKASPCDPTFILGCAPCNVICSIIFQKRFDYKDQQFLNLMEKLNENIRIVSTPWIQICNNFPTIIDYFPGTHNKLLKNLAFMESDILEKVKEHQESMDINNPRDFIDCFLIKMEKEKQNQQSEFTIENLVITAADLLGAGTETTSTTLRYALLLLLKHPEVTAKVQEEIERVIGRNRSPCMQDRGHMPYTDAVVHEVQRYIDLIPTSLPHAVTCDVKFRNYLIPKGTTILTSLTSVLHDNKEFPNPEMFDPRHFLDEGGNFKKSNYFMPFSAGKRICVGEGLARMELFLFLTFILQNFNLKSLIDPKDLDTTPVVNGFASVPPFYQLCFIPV

Structure (SMILES)	AC50
CC(C)(C)c1cccc(O)c1 [3-tert-Butylphenol]	23.9 µM

The molecules below were run against T2, human CYP2C9 (Homo sapiens, UniProt P11712) (assay: not given). Settings: not given.
T2 sequence (P11712 whole entry): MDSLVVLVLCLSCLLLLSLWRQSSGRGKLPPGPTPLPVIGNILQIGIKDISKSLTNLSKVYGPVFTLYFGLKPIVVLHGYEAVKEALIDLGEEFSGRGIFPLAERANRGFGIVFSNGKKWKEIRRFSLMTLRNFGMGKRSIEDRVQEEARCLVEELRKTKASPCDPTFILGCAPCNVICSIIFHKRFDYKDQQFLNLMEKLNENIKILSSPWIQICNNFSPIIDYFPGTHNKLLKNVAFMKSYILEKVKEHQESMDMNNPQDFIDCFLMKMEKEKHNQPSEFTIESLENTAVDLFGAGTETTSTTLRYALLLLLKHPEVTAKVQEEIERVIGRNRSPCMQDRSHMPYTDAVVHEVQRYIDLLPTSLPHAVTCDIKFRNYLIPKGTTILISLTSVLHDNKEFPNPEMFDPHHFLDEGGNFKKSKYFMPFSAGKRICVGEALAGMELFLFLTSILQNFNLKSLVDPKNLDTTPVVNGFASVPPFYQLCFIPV

Structure (SMILES)	CYP2C9 AC50 (half-maximal activity concentration)	AC50
CC(C)(C)c1cccc(O)c1 [3-tert-Butylphenol]	Inconclusive inhibitor	–
O=C(O)C(F)(F)C(F)(F)C(F)(F)C(F)(F)C(F)(F)F [PFHxA]	–	17.5 µM
N.O=C(O)C(F)(F)C(F)(F)C(F)(F)C(F)(F)C(F)(F)C(F)(F)C(F)(F)F [PFOA, ammonium salt]	–	1.78 µM
O=C(O)C(F)(F)C(F)(F)C(F)(F)C(F)(F)C(F)(F)C(F)(F)C(F)(F)F [PFOA]	–	2.52 µM
CCOC(=O)c1ccc(N(C)C)cc1 [Parbenate]	–	31.9 µM
O=C(OCCCCCOC(=O)c1ccccc1)c1ccccc1 [Pentane-1,5-diyl dibenzoate]	–	10.5 µM
CN1C(=O)N(c2ccccc2Br)Cc2cnc(Nc3ccc4c(c3)OCC(CO)O4)nc21 (centres unmarked) [PharmaGSID_48519]	–	12.2 µM
CC(C)C(=O)OCCOc1ccccc1 [Phenoxyethyl isobutyrate]	–	36 µM
CCC(=O)OCCOc1ccccc1 [Phenoxyethyl propionate]	Inconclusive	–
COC(=O)c1ccccc1C(=O)c1ccc(OCCN2CCCCC2)cc1.Cl [Pitofenone hydrochloride]	Inactive	–
CCCOc1ccc2c(c1)CC[C@@H]1[C@@H]2CC[C@]2(C)[C@@H](OC)CC[C@@H]12 [Promestriene]	Inconclusive inhibitor	–
CCCCCCCCS(=O)(=O)[O-].[Na+] [Sodium 1-octanesulfonate]	–	44.1 µM

Each molecule was assayed against T1, human CYP2C19 (assay: not given). Settings: not given.

Structure (SMILES)	CYP2C19 AC50 (half-maximal activity concentration)	AC50
Oc1cc(Cl)c(Cl)cc1Cl [2,4,5-Trichlorophenol]	Inconclusive inhibitor	–
Oc1cc(Cl)ccc1Cl [2,5-Dichlorophenol]	Inconclusive inhibitor	–
CCOc1ccccc1C(N)=O [2-Ethoxybenzamide]	Inactive	–
COc1cccc(O)c1 [3-Methoxyphenol]	Inactive	–
O=C(O)C(F)(F)C(F)(F)C(F)(F)C(F)(F)C(F)(F)F [PFHxA]	Inactive	–
N.O=C(O)C(F)(F)C(F)(F)C(F)(F)C(F)(F)C(F)(F)C(F)(F)C(F)(F)F [PFOA, ammonium salt]	–	60.8 µM
O=C(O)C(F)(F)C(F)(F)C(F)(F)C(F)(F)C(F)(F)C(F)(F)C(F)(F)F [PFOA]	Inactive	–
CCOC(=O)c1ccc(N(C)C)cc1 [Parbenate]	–	21.6 µM
O=C(OCCCCCOC(=O)c1ccccc1)c1ccccc1 [Pentane-1,5-diyl dibenzoate]	–	48.1 µM
CN1C(=O)N(c2ccccc2Br)Cc2cnc(Nc3ccc4c(c3)OCC(CO)O4)nc21 (centres unmarked) [PharmaGSID_48519]	–	5.72 µM
CC(C)C(=O)OCCOc1ccccc1 [Phenoxyethyl isobutyrate]	–	38.5 µM
CCC(=O)OCCOc1ccccc1 [Phenoxyethyl propionate]	Inconclusive inhibitor	–
COC(=O)c1ccccc1C(=O)c1ccc(OCCN2CCCCC2)cc1.Cl [Pitofenone hydrochloride]	Inactive	–
CCCOc1ccc2c(c1)CC[C@@H]1[C@@H]2CC[C@]2(C)[C@@H](OC)CC[C@@H]12 [Promestriene]	Inconclusive inhibitor	–
CCCCCCCCS(=O)(=O)[O-].[Na+] [Sodium 1-octanesulfonate]	Inactive	–

These molecules were tested against T2, human CYP2C9 (assay: biochemical). Settings: not given.

Structure (SMILES)	AC50
CCOc1ccccc1C(N)=O [2-Ethoxybenzamide]	31 ± 3.57 µM
COc1cccc(O)c1 [3-Methoxyphenol]	40.4 µM

Same assay, conditions: CYP2C9 AC50 (half-maximal activity concentration)

Structure (SMILES)	AC50
Oc1cc(Cl)c(Cl)cc1Cl [2,4,5-Trichlorophenol]	22.4 µM
Oc1cc(Cl)ccc1Cl [2,5-Dichlorophenol]	32.8 µM

These molecules were tested against T3, human CYP1A2 (Homo sapiens, UniProt P05177) (assay: biochemical). Settings: not given.
T3 sequence (P05177 1-516): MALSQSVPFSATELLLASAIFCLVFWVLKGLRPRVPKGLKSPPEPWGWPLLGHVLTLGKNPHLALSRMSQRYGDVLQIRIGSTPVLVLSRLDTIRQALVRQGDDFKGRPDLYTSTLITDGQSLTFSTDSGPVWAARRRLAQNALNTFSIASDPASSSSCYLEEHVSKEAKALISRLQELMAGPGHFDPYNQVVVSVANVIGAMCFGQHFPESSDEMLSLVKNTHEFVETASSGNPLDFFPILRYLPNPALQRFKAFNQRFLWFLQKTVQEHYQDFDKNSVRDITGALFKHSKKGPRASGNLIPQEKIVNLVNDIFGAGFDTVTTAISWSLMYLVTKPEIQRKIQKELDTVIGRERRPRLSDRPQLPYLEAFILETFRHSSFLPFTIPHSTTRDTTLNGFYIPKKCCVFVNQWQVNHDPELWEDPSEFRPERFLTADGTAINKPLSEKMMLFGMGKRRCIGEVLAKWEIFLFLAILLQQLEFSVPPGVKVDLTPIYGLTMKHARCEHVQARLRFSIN

Structure (SMILES)	AC50
CCOc1ccccc1C(N)=O [2-Ethoxybenzamide]	16.8 ± 1.09 µM
COc1cccc(O)c1 [3-Methoxyphenol]	49.3 µM

Same assay, conditions: CYP1A2 AC50 (half-maximal activity concentration)

Structure (SMILES)	AC50
Oc1cc(Cl)c(Cl)cc1Cl [2,4,5-Trichlorophenol]	20.8 µM
Oc1cc(Cl)ccc1Cl [2,5-Dichlorophenol]	33.9 µM

The molecules below were run against CYP3A4 (Homo sapiens, UniProt P08684) (assay: not given). Settings: not given.
Chain of CYP3A4 (P08684 whole entry): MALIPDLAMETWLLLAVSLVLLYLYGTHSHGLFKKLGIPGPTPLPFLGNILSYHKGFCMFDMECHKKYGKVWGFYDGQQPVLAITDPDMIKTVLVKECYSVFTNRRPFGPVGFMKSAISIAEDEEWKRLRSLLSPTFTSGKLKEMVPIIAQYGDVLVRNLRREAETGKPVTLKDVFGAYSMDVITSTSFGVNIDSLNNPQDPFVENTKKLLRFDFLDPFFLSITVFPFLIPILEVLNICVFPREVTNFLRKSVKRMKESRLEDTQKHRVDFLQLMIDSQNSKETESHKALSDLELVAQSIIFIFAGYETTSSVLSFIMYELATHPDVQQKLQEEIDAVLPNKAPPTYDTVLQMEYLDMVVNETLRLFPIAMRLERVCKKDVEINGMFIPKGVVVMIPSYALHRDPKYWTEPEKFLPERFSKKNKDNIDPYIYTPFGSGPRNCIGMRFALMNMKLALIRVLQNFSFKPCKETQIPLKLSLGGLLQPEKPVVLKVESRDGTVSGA

Structure (SMILES)	CYP3A4 AC50 (half-maximal activity concentration)	AC50
Oc1cc(Cl)c(Cl)cc1Cl [2,4,5-Trichlorophenol]	Inactive	–
Oc1cc(Cl)ccc1Cl [2,5-Dichlorophenol]	Inactive	–
CCOc1ccccc1C(N)=O [2-Ethoxybenzamide]	Inactive	–
COc1cccc(O)c1 [3-Methoxyphenol]	Inactive	–
CC(C)(C)c1cccc(O)c1 [3-tert-Butylphenol]	Inactive	–
O=C(O)C(F)(F)C(F)(F)C(F)(F)C(F)(F)C(F)(F)F [PFHxA]	–	58.1 µM
N.O=C(O)C(F)(F)C(F)(F)C(F)(F)C(F)(F)C(F)(F)C(F)(F)C(F)(F)F [PFOA, ammonium salt]	–	76.8 µM
O=C(O)C(F)(F)C(F)(F)C(F)(F)C(F)(F)C(F)(F)C(F)(F)C(F)(F)F [PFOA]	–	70.8 µM
CCOC(=O)c1ccc(N(C)C)cc1 [Parbenate]	–	47.9 µM
O=C(OCCCCCOC(=O)c1ccccc1)c1ccccc1 [Pentane-1,5-diyl dibenzoate]	–	26.9 µM
CN1C(=O)N(c2ccccc2Br)Cc2cnc(Nc3ccc4c(c3)OCC(CO)O4)nc21 (centres unmarked) [PharmaGSID_48519]	–	1.4 µM
CC(C)C(=O)OCCOc1ccccc1 [Phenoxyethyl isobutyrate]	–	22.6 µM
CCC(=O)OCCOc1ccccc1 [Phenoxyethyl propionate]	–	47.1 µM
COC(=O)c1ccccc1C(=O)c1ccc(OCCN2CCCCC2)cc1.Cl [Pitofenone hydrochloride]	–	15.5 µM
CCCOc1ccc2c(c1)CC[C@@H]1[C@@H]2CC[C@]2(C)[C@@H](OC)CC[C@@H]12 [Promestriene]	–	9.46 µM
CCCCCCCCS(=O)(=O)[O-].[Na+] [Sodium 1-octanesulfonate]	–	33.1 µM

These molecules were tested against T3, human CYP1A2 (assay: not given). Settings: not given.

Structure (SMILES)	CYP1A2 AC50 (half-maximal activity concentration)	AC50
CC(C)(C)c1cccc(O)c1 [3-tert-Butylphenol]	Inconclusive inhibitor	–
O=C(O)C(F)(F)C(F)(F)C(F)(F)C(F)(F)C(F)(F)F [PFHxA]	Inactive	–
N.O=C(O)C(F)(F)C(F)(F)C(F)(F)C(F)(F)C(F)(F)C(F)(F)C(F)(F)F [PFOA, ammonium salt]	Inactive	–
O=C(O)C(F)(F)C(F)(F)C(F)(F)C(F)(F)C(F)(F)C(F)(F)C(F)(F)F [PFOA]	Inactive	–
CCOC(=O)c1ccc(N(C)C)cc1 [Parbenate]	–	4.68 µM
O=C(OCCCCCOC(=O)c1ccccc1)c1ccccc1 [Pentane-1,5-diyl dibenzoate]	–	8.29 µM
CN1C(=O)N(c2ccccc2Br)Cc2cnc(Nc3ccc4c(c3)OCC(CO)O4)nc21 (centres unmarked) [PharmaGSID_48519]	–	30.7 µM
CC(C)C(=O)OCCOc1ccccc1 [Phenoxyethyl isobutyrate]	–	31.9 µM
CCC(=O)OCCOc1ccccc1 [Phenoxyethyl propionate]	–	55.5 µM
COC(=O)c1ccccc1C(=O)c1ccc(OCCN2CCCCC2)cc1.Cl [Pitofenone hydrochloride]	Inactive	–
CCCOc1ccc2c(c1)CC[C@@H]1[C@@H]2CC[C@]2(C)[C@@H](OC)CC[C@@H]12 [Promestriene]	–	33.7 µM
CCCCCCCCS(=O)(=O)[O-].[Na+] [Sodium 1-octanesulfonate]	Inactive	–
